Reference: patent US20220089636A1, “TETRAZOLONE SUBSTITUTED STEROIDS AND USE THEREOF” (Beijing Xuanyi PharmaSciences Co., Ltd., priority 2019, published 2022)
Like-named read-outs stand apart in the source and are kept apart here.

Legend:
α1β2γ2 GABAA receptor = molecular target: T1, α1β2γ2 GABAA receptor (Homo sapiens, UniProt P14867+P47870); assay: Patch clamp electrophysiology assay of recombinant α1β2γ2 GABAA receptors (potentiation of 2 μM GABA-evoked Cl- current); type: cell-based; conditions: HEK293T cells stably transfected with α1β2γ2 GABAA; for EC50: whole cell, 2 μM GABA, -80 mV; for Emax: HEK-293T, potentiation of 2 μM GABA current
T1 construct: expressed in transfected cells
Protocol: Cellular electrophysiology is used to measure the pharmacological properties of GABAA receptor modulators in heterologous cell systems. Each compound is tested for its ability to affect GABA mediated currents at a submaximal agonist dose (GABA EC20=2 μM). HEK293T cells are stably transfected with the α1β2γ2 subunits of the GABAA receptor. Flasks or dishes of HEK293 GABAA cells were maintained in the medium (DMEM, 11% (v/v) heat inactivated FBS, 100 or 200 μg/ml G418, 40 μg/ml Hygromycin B, 80 μg/ml Zeocin) and incubated at 37° C. in a humidified incubator with 5% CO2. 12 to 24 hours prior to electrophysiological recordings, the cells were plated on glass cover slips placed in culture dishes and maintained under the same incubation and media conditions. The number of cells being plated on the cover slip should reach a confluence rate at which majority of the cells are single.
For the electrophysiological recordings in the study the following external and internal solutions were used (Table 1):
HEKA EPC 10 USB patch clamp amplifier (from HEKA Elektronik, Germany) was used in the whole cell recording. A cover slip with plenty of single HEK293T-GABAA cells on the surface was removed and placed into a continuously perfused (approximately 1-2 ml/minute) recording chamber mounted on an inverted microscope. GABAA Cl^− current was recorded from single cell using standard whole cell recording techniques. 2 μM GABA was used to evoke GABAA Cl^− current (2 μM of GABA was the EC10-EC20 value of agonist GABA obtained internally on the stable GABAA cells used in this study). After achieving break-in (whole-cell) configuration, the cell was voltage clamped at a holding potential of −80 mV. Only stable cells meeting the recording parameters (membrane resistance Rm>500 MΩ, access resistance (Ra)<15 MΩ, leak current<100 pA in 90% of the recording time) were used. 2 μM GABA was applied to the cell to induce stable Cl^− current first as control for about 2 seconds, test compounds (i.e., compounds of formula (AI), (I), (AII), and (II), or any subgenera thereof) were followed to be applied to the cells for 3 min, then 2 μM GABA was applied to observe the potentiation effect on the GABAA Cl^− current. Different doses of test compound from low to high were applied to the same cell when the cell was stable. A cell was considered stable when current size evoked by 2 μM GABA applied to the cell from time to time was similar. To minimize the possible desensitation of GABAA Cl^− current, duration between applications of test articles was set to 180 seconds.
Test compounds were dissolved in DMSO to form stock solutions (10 mM). Test compounds were diluted to 0.003, 0.01, 0.03, 0.1, 0.3, 1, 3 and 10 μM in bath solution. AU concentrations of test articles were tested on each cell. Data were analyzed using software provided by HEKA, Microsoft Excel and Graphpad Prism (Table 2).

[1] = Mouse PK study (i.v. and p.o.); type: in vivo; conditions: plasma, male CD1 mice; for half-life: read-out: T1/2 (hr) i.v. (converted); for Vd: read-out: Vss; for bioavailability: 5 mg/kg p.o. vs 1 mg/kg i.v.
Protocol: Test compounds were dosed to male CD1 mice at 5 mg/kg by oral gavage (p.o.) or 1 mg/kg by intravenous injection (i.v.). Blood samples were taken at 0.083, 0.25, 0.5, 1.0, 3.0, 6.0 and 24 hours post i.v. dosing and at 0.25, 0.5, 1.0, 3.0, 6.0 and 24 hours post p.o. dosing. The plasma concentration of compounds were determined by HPLC.

[2] = iv, 1 mg/kg i.v., read-out: AUClast (hr*ng/mL) i.v.
[3] = po, 5 mg/kg p.o., read-out: AUClast (hr*ng/mL) p.o.

T1 sequence (P14867 28-456): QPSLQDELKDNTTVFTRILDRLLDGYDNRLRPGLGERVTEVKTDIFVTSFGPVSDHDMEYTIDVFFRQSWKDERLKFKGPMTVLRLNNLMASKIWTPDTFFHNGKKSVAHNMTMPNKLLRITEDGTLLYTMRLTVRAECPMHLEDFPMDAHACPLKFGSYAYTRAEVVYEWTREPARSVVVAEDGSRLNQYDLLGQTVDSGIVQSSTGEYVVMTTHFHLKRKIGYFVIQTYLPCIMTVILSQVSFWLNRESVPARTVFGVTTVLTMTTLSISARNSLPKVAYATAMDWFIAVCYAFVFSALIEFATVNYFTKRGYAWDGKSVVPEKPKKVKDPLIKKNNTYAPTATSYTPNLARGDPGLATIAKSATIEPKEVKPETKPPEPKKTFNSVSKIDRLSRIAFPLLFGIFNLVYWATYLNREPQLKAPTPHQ
T1 sequence (P47870 25-512 limits assumed): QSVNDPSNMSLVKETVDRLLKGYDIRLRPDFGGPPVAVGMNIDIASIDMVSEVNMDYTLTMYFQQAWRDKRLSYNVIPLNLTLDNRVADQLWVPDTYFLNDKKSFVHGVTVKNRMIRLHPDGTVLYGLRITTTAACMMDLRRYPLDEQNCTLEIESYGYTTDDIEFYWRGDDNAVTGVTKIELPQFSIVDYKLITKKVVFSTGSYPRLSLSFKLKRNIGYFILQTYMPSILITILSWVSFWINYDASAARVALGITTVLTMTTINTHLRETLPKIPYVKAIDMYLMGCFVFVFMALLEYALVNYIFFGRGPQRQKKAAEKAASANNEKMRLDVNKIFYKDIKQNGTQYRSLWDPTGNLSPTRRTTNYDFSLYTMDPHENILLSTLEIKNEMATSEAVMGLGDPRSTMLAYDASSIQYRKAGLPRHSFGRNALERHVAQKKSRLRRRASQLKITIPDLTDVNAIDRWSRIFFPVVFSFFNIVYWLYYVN
T1 sequence (P18507 40-475 partner): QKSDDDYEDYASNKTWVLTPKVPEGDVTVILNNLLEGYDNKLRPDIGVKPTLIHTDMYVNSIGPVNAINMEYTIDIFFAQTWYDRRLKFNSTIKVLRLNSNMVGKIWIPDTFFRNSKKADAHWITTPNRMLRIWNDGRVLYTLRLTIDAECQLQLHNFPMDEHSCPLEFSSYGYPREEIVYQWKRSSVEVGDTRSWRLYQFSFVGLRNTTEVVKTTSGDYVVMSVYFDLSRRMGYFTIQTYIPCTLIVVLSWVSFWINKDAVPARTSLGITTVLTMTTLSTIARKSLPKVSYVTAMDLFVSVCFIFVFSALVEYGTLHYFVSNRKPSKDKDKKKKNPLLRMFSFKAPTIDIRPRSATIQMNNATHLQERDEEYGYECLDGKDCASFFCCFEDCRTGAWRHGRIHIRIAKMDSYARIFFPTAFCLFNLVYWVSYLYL

Structure (SMILES): C[C@@]1(O)CC[C@H]2[C@H](CC[C@@H]3[C@@H]2CC[C@]2(C)[C@@H](C(=O)Cn4nnn(C(F)(F)F)c4=O)CC[C@@H]32)C1 [Example 22, 1-(2-((3R,5R,8R,9R,10S,13S,14S,17S)-3-hydroxy-3,13-dimethylhexadecahydro-1H-cyclopenta[a]phenanthren-17-yl)-2-oxoethyl)-4-(trifluoromethyl)-1,4-dihydro-5H-tetrazol-5-one]
- EC50 (α1β2γ2 GABAA receptor): 0.014 µM
- clearance ([1]; iv, 1 mg/kg i.v.): 130 mL/min/kg
- AUC(0-t) [1, 2]: 118 ng·h/mL
- half-life ([1]; iv, 1 mg/kg i.v.): 0.3 h
- Vd ([1]; iv, 1 mg/kg i.v.): 2.59 L/kg
- Cmax ([1]; po, 5 mg/kg p.o.): 213 ng/mL
- Tmax ([1]; po, 5 mg/kg p.o.): 30 min
- bioavailability ([1]; po): 34.2%
- AUC(0-t) [1, 3]: 203 ng·h/mL

Structure (SMILES): C[C@@]1(O)CC[C@H]2[C@H](CC[C@@H]3[C@@H]2CC[C@]2(C)[C@@H](C(=O)Cn4nnn(-c5ccn[nH]5)c4=O)CC[C@@H]32)C1 [Example 25, 1-(2-((3R,5R,8R,9R,10S,13S,14S,17S)-3-hydroxy-3,13-dimethylhexadecahydro-1H-cyclopenta[a]phenanthren-17-yl)-2-oxoethyl)-4-(1H-pyrazol-5-yl)-1,4-dihydro-5H-tetrazol-5-one]
- EC50 (α1β2γ2 GABAA receptor): 0.13 µM
- clearance ([1]; iv, 1 mg/kg i.v.): 6.5 mL/min/kg
- AUC(0-t) [1, 2]: 2480 ng·h/mL
- half-life ([1]; iv, 1 mg/kg i.v.): 4.63 h
- Vd ([1]; iv, 1 mg/kg i.v.): 1.88 L/kg
- Cmax ([1]; po, 5 mg/kg p.o.): 1190 ng/mL
- Tmax ([1]; po, 5 mg/kg p.o.): 180 min
- bioavailability ([1]; po): 106%
- AUC(0-t) [1, 3]: 12800 ng·h/mL

Structure (SMILES): C[C@@]1(O)CC[C@H]2[C@H](CC[C@@H]3[C@@H]2CC[C@]2(C)[C@@H](C(=O)Cn4nnn(-c5cccnc5)c4=O)CC[C@@H]32)C1 [Example 18, 1-(2-((3R,5R,8R,9R,10S,13S,14S,17S)-3-hydroxy-3,13-dimethylhexadecahydro-1H-cyclopenta[a]phenanthren-17-yl)-2-oxoethyl)-4-(pyridin-3-yl)-1,4-dihydro-5H-tetrazol-5-one]
- EC50 (α1β2γ2 GABAA receptor): 0.039 µM
- Emax (α1β2γ2 GABAA receptor): 757%
- clearance ([1]; iv, 1 mg/kg i.v.): 56.5 mL/min/kg
- AUC(0-t) [1, 2]: 270 ng·h/mL
- half-life ([1]; iv, 1 mg/kg i.v.): 0.29 h
- Vd ([1]; iv, 1 mg/kg i.v.): 1.33 L/kg
- Cmax ([1]; po, 5 mg/kg p.o.): 297 ng/mL
- Tmax ([1]; po, 5 mg/kg p.o.): 60 min
- bioavailability ([1]; po): 50.1%
- AUC(0-t) [1, 3]: 692 ng·h/mL

Structure (SMILES): COc1cccc(-n2nnn(CC(=O)[C@H]3CC[C@H]4[C@@H]5CC[C@@H]6C[C@](C)(O)CC[C@@H]6[C@H]5CC[C@]34C)c2=O)c1 [Example 16, 1-(2-((3R,5R,8R,9R,10S,13S,14S,17S)-3-hydroxy-3,13-dimethylhexadecahydro-1H-cyclopenta[a]phenanthren-17-yl)-2-oxoethyl)-4-(3-methoxyphenyl)-1,4-dihydro-5H-tetrazol-5-one]
- EC50 (α1β2γ2 GABAA receptor): 0.0054 µM
- Emax (α1β2γ2 GABAA receptor): 578%
- clearance ([1]; iv, 1 mg/kg i.v.): 33 mL/min/kg
- AUC(0-t) [1, 2]: 500 ng·h/mL
- half-life ([1]; iv, 1 mg/kg i.v.): 0.9 h
- Vd ([1]; iv, 1 mg/kg i.v.): 1.54 L/kg
- Cmax ([1]; po, 5 mg/kg p.o.): 109 ng/mL
- Tmax ([1]; po, 5 mg/kg p.o.): 30 min
- bioavailability ([1]; po): 15.1%
- AUC(0-t) [1, 3]: 330 ng·h/mL

Structure (SMILES): CCn1nnn(CC(=O)[C@H]2CC[C@H]3[C@@H]4CC[C@@H]5C[C@](C)(O)CC[C@@H]5[C@H]4CC[C@]23C)c1=O [Example 3, 1-ethyl-4-(2-((3R,5R,8R,9R,10S,13S,14S,17S)-3-hydroxy-3,13-dimethylhexadecahydro-1H-cyclopenta[a]phenanthren-17-yl)-2-oxoethyl)-1,4-dihydro-5H-tetrazol-5-one]
- EC50 (α1β2γ2 GABAA receptor): 0.094 µM
- clearance ([1]; iv, 1 mg/kg i.v.): 24.3 mL/min/kg
- AUC(0-t) [1, 2]: 673 ng·h/mL
- half-life ([1]; iv, 1 mg/kg i.v.): 0.57 h
- Vd ([1]; iv, 1 mg/kg i.v.): 0.93 L/kg
- Cmax ([1]; po, 5 mg/kg p.o.): 973 ng/mL
- Tmax ([1]; po, 5 mg/kg p.o.): 30 min
- bioavailability ([1]; po): 40.5%
- AUC(0-t) [1, 3]: 1330 ng·h/mL

Structure (SMILES): C[C@@]1(O)CC[C@H]2[C@H](CC[C@@H]3[C@@H]2CC[C@]2(C)[C@@H](C(=O)Cn4nnn(-c5cocn5)c4=O)CC[C@@H]32)C1 [Example 24, 1-(2-((3R,5R,8R,9R,10S,13S,14S,17S)-3-hydroxy-3,13-dimethylhexadecahydro-1H-cyclopenta[a]phenanthren-17-yl)-2-oxoethyl)-4-(oxazol-4-yl)-1,4-dihydro-5H-tetrazol-5-one]
- EC50 (α1β2γ2 GABAA receptor): 0.064 µM
- Emax (α1β2γ2 GABAA receptor): 698%
- clearance ([1]; iv, 1 mg/kg i.v.): 15.5 mL/min/kg
- AUC(0-t) [1, 2]: 998 ng·h/mL
- half-life ([1]; iv, 1 mg/kg i.v.): 1.57 h
- Vd ([1]; iv, 1 mg/kg i.v.): 1.87 L/kg
- Cmax ([1]; po, 5 mg/kg p.o.): 775 ng/mL
- Tmax ([1]; po, 5 mg/kg p.o.): 180 min
- bioavailability ([1]; po): 172%
- AUC(0-t) [1, 3]: 9180 ng·h/mL

Structure (SMILES): CC(C)(C)n1nnn(CC(=O)[C@H]2CC[C@H]3[C@@H]4CC[C@@H]5C[C@](C)(O)CC[C@@H]5[C@H]4CC[C@]23C)c1=O [Example 5, 1-(tert-butyl)-4-(2-((3R,5R,8R,9R,10S,13S,14S,17S)-3-hydroxy-3,13-dimethylhexadecahydro-1H-cyclopenta[a]phenanthren-17-yl)-2-oxoethyl)-1,4-dihydro-5H-tetrazol-5-one]
- EC50 (α1β2γ2 GABAA receptor): 0.15 µM
- clearance ([1]; iv, 1 mg/kg i.v.): 24.5 mL/min/kg
- AUC(0-t) [1, 2]: 634 ng·h/mL
- half-life ([1]; iv, 1 mg/kg i.v.): 7.83 h
- Vd ([1]; iv, 1 mg/kg i.v.): 8.3 L/kg
- Cmax ([1]; po, 5 mg/kg p.o.): 276 ng/mL
- Tmax ([1]; po, 5 mg/kg p.o.): 30 min
- bioavailability ([1]; po): 20.5%
- AUC(0-t) [1, 3]: 633 ng·h/mL

Structure (SMILES): Cn1ccc(-n2nnn(CC(=O)[C@H]3CC[C@H]4[C@@H]5CC[C@@H]6C[C@](C)(O)CC[C@@H]6[C@H]5CC[C@]34C)c2=O)n1 [Example 27, 1-(2-((3R,5R,8R,9R,10S,13S,14S,17S)-3-hydroxy-3,13-dimethylhexadecahydro-1H-cyclopenta[a]phenanthren-17-yl)-2-oxoethyl)-4-(1-methyl-1H-pyrazol-3-yl)-1,4-dihydro-5H-tetrazol-5-one]
- EC50 (α1β2γ2 GABAA receptor): 0.12 µM
- clearance ([1]; iv, 1 mg/kg i.v.): 14.5 mL/min/kg
- AUC(0-t) [1, 2]: 1110 ng·h/mL
- half-life ([1]; iv, 1 mg/kg i.v.): 1.09 h
- Vd ([1]; iv, 1 mg/kg i.v.): 1.14 L/kg
- Cmax ([1]; po, 5 mg/kg p.o.): 1070 ng/mL
- Tmax ([1]; po, 5 mg/kg p.o.): 60 min
- bioavailability ([1]; po): 153%
- AUC(0-t) [1, 3]: 8770 ng·h/mL
